Results on eleven compounds are retold here after ChEMBL document CHEMBL1201862, “PubChem BioAssay data set” (2004).

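Dose response: 5 concentrations. Exposure: 48 h. Format: 96-well plates. Endpoint: linear interpolation; highest concentration if not reached. GI50 = concentration required for 50% inhibition of growth.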 Activity calls are given as the source filed them. Rule as the data show it: active = GI50 up to about 1.1 µM and inactive = higher.

Test in all cases: NCI-60 cell line screen, 48 h
Experiment [1] relates to SF-268.
The subject of experiment [2] is NCI-H226.
The subject of experiment [3] is SF-539.
For experiment [4], the system named is HCT-15.
In experiment [5] the test system is UACC-62.
Experiment [6] has as its system HCT-116.
In experiment [7] the test system is NCI-H522.
In experiment [8] the test system is NCI-H460.
In experiment [9] the test system is NCI-H23.
The test system of experiment [10] is UO-31.
Experiment [11] deals with KM12.
The test system of experiment [12] is SK-MEL-5.
For experiment [13], the system named is HL-60.
Experiment [14] relates to MCF7.
Experiment [15] deals with EKVX.
Experiment [16] concerns HOP-62.
Experiment [17] concerns OVCAR-3.
In experiment [18] the test system is SN12C.
Experiment [19] has as its system PC-3.
The test system of experiment [20] is CAKI-1.

In the case of `Nc1c(S(=O)(=O)O)cc2cc(S(=O)(=O)O)ccc2c1/N=N/c1ccc(-c2ccc(/N=N/c3c(N)c(S(=O)(=O)O)cc4cc(S(=O)(=O)O)ccc34)c(S(=O)(=O)O)c2)cc1`, the GI50 is > 100 µM (inactive) in [1]; > 81.3 µM (inactive) in [2]; > 100 µM (inactive) in experiment [3]; over 91.4 µM in experiment [4]; > 100 µM (inactive) in [5]; > 100 µM (inactive) in experiment [6]. The GI50 is > 100 µM (inactive) in experiment [7]; > 31.6 µM (inactive) in experiment [8]; > 100 µM (inactive) in experiment [9]; > 92.3 µM (inactive) in [10]; > 100 µM (inactive) in experiment [11]; > 100 µM (inactive) in experiment [12]. The GI50 was > 71.1 µM (inactive) in [13]; 22.8 µM (inactive) in [14]; > 100 µM (inactive) in experiment [15]; > 100 µM (inactive) in [16]; 71.3 µM (inactive) in [17]; > 100 µM (inactive) in [18].
As for `CC(C)N1CSC(=S)N(Cc2ccccc2)C1`, the GI50 was 4.38 µM (inactive) in experiment [1]; 1.48 µM (inactive) in experiment [3]; 3.4 µM in experiment [4]; 4.06 µM (inactive) in experiment [5]; 3.01 µM (inactive) in experiment [6]; > 10 µM (inactive) in [8]. In addition, the GI50 in experiment [9] was 3.1 µM (inactive); in experiment [11] it was 3.36 µM (inactive); in experiment [19] it was 3.75 µM (inactive); in [12] it was 4.66 µM (inactive); in experiment [13], 0.197 µM (active); in experiment [14] it was 4.16 µM (inactive). The GI50 was > 10 µM (inactive) in experiment [15], > 10 µM (inactive) in experiment [16], 3.87 µM (inactive) in experiment [17] and 4.49 µM (inactive) in experiment [18].
For the compound `N#C/C(=C\NC(=S)Nc1ccc(S(=O)(=O)Nc2ccccn2)cc1)C(N)=O`, the GI50 in experiment [1] is > 100 µM (inactive); in experiment [2] it was > 100 µM (inactive); in experiment [3], > 100 µM (inactive); in [4], over 100 µM; in experiment [5], > 100 µM (inactive); in experiment [6] it was > 100 µM (inactive). For the same compound, the GI50 was > 100 µM (inactive) in [7]; > 100 µM (inactive) in [8]; 80.2 µM (inactive) in [9]; > 100 µM (inactive) in experiment [10]; > 100 µM (inactive) in experiment [11]; > 100 µM (inactive) in experiment [19]. The GI50 in experiment [12], in experiment [20], in experiment [14], in experiment [15], in experiment [16] and in experiment [17] was > 100 µM (inactive) each time. Moreover, the GI50 in [18] was > 100 µM (inactive).
In the case of `CCOC(=O)C1=C(C)N(c2ccc(OC)cc2)C2(O)C=CC(O)=C3C(=O)c4ccccc4C(=O)C312` (centres undefined), the GI50 in [1] is 2.13 µM (inactive); in [3], 6.92 µM (inactive); in experiment [4] it was 6.71 µM; in experiment [5] it was 12.5 µM (inactive); in experiment [6], 11.3 µM (inactive); in [7], 2.57 µM (inactive). The GI50 in [8] is 11.5 µM (inactive); in [9] it was 16.1 µM (inactive); in [10] it was 13.9 µM (inactive); in [11] it was 12.9 µM (inactive); in [19], 5.53 µM (inactive); in experiment [12], 11.4 µM (inactive). Further, the GI50 in [20] is 8.38 µM (inactive); in [13], 5.93 µM (inactive); in [14] it was 6.03 µM (inactive); in experiment [15], 7.43 µM (inactive); in experiment [16] it was 13.8 µM (inactive); in experiment [17] it was 3.06 µM (inactive). The GI50 in [18] was 14.8 µM (inactive).
Consider `Nc1nc2cc(COc3ccc(C(=O)O)cc3)ccc2nc1-c1ccccc1`, for which the GI50 in experiment [1] was > 10 µM (inactive); in [2], > 10 µM (inactive); in [3], > 10 µM (inactive); in experiment [4], over 10 µM; in experiment [5], > 10 µM (inactive); in [7] it was > 10 µM (inactive). Moreover, the GI50 in experiment [8], in [9], in experiment [10], in experiment [11], in experiment [19] and in experiment [12] was > 10 µM (inactive) throughout. Besides, the GI50 in experiment [20], in experiment [13], in experiment [14], in experiment [15], in [16] and in [17] was > 10 µM (inactive) each time. Also, the GI50 in [18] is > 10 µM (inactive).
`Cc1cc(N(CCOS(C)(=O)=O)CCOS(C)(=O)=O)ccc1C=O`: the GI50 in [1] was 6.56 µM (inactive); in [3], < 0.01 µM (active); in experiment [4], 13.2 µM; in experiment [5], 2.43 µM (inactive); in experiment [6], 28.9 µM (inactive); in experiment [7], 0.142 µM (active). For the same compound, the GI50 in experiment [8] was 0.078 µM (active); in experiment [9], 3.68 µM (inactive); in experiment [10], 2.88 µM (inactive); in experiment [11], 14.7 µM (inactive); in [19], 20 µM (inactive); in [12], 7.78 µM (inactive). Further, the GI50 is 0.127 µM (active) in experiment [20]; 2.98 µM (inactive) in [13]; 1.22 µM (inactive) in experiment [14]; 3.61 µM (inactive) in experiment [15]; 6.19 µM (inactive) in [17]; 1.47 µM (inactive) in experiment [18].
In the case of `CCOC(=O)C1=C(C)N(NC(N)=O)C2(O)CCCC(=O)C12C` (centres undefined), the GI50 in experiment [2] is > 100 µM (inactive); in experiment [3] it was > 100 µM (inactive); in experiment [4] it was over 100 µM; in experiment [5], > 100 µM (inactive); in experiment [6], > 10 µM (inactive); in experiment [7] it was > 100 µM (inactive). In addition, the GI50 in experiment [9], in [11], in experiment [12], in experiment [20], in experiment [17] and in [18] was > 100 µM (inactive) in each case.
Consider `CC(=O)NC(c1nc2cc(C)c(C)cc2[nH]1)c1nc2cc(C)c(C)cc2[nH]1`, for which the GI50 was 23.2 µM (inactive) in experiment [1]; 14.1 µM (inactive) in experiment [3]; 21.2 µM in experiment [4]; 32.7 µM (inactive) in experiment [5]; 19.1 µM (inactive) in [6]; 5.12 µM (inactive) in [7]. Besides, the GI50 in experiment [8] is 11.7 µM (inactive); in experiment [9] it was 32.2 µM (inactive); in experiment [10] it was 25.4 µM (inactive); in experiment [11] it was 16 µM (inactive); in experiment [19] it was 24.8 µM (inactive); in experiment [12] it was 15.2 µM (inactive). For the same compound, the GI50 in [20] is 20.3 µM (inactive); in experiment [13], 28.2 µM (inactive); in [14], 23.9 µM (inactive); in [15], 24.3 µM (inactive); in experiment [17], 13.9 µM (inactive); in [18] it was 15.9 µM (inactive).
Take `CC1(c2sccc2Cl)CC(c2sccc2Cl)=C(C#N)C(=C(C#N)C#N)N1` (centres undefined): the GI50 is 20.2 µM (inactive) in experiment [1]; 19.8 µM (inactive) in [3]; 17.9 µM in [4]; 18.3 µM (inactive) in experiment [5]; 17.2 µM (inactive) in [6]; 19.1 µM (inactive) in experiment [7]. Also, the GI50 was 19 µM (inactive) in experiment [8]; 17.9 µM (inactive) in experiment [9]; 20.9 µM (inactive) in [11]; 18.7 µM (inactive) in experiment [19]; 18.5 µM (inactive) in [12]; 20.2 µM (inactive) in [20]. The GI50 in experiment [13] is 34.2 µM (inactive); in [14] it was 22.8 µM (inactive); in experiment [15], 18.7 µM (inactive); in experiment [16] it was 19.3 µM (inactive); in experiment [17] it was 14.9 µM (inactive); in [18] it was 20.2 µM (inactive).
For the compound `CSc1nc(SC)c2cnn(CC3CO3)c2n1` (centres undefined), the GI50 in experiment [1] is 9.73 µM (inactive); in experiment [2], 17.9 µM (inactive); in experiment [3], 19.5 µM (inactive); in [4], 25.2 µM; in experiment [5] it was 19.2 µM (inactive); in [6], 13.4 µM (inactive). Moreover, the GI50 in [7] is 26.2 µM (inactive); in experiment [8], 21 µM (inactive); in experiment [9], 18.6 µM (inactive); in [10], 19.5 µM (inactive); in experiment [11], 20.3 µM (inactive); in experiment [12], 13.3 µM (inactive). For the same compound, the GI50 in experiment [13] is 17.5 µM (inactive); in [14], 9.44 µM (inactive); in experiment [15] it was 29.3 µM (inactive); in [16], 18.7 µM (inactive); in experiment [17], 25.1 µM (inactive); in [18] it was 20.2 µM (inactive).
In the case of `COc1cccc2c1C(=O)c1c(O)c3c(c(O)c1C2=O)CC(O)(C(=O)CO)CC3OC1CC(N)C(I)C(C)O1` (centres undefined), the GI50 in experiment [1] was 15.9 µM (inactive); in experiment [2], 0.787 µM (active); in [3], 2.62 µM (inactive); in experiment [4] it was 1.83 µM; in experiment [5] it was 1.58 µM (inactive); in experiment [6] it was 0.573 µM (active). Moreover, the GI50 in [7] is 2.9 µM (inactive); in [8] it was 0.313 µM (active); in [9], 2.28 µM (inactive); in [10] it was 4.88 µM (inactive); in experiment [11], > 30.3 µM (inactive); in experiment [12] it was 2.64 µM (inactive). Also, the GI50 in experiment [20] is 2.87 µM (inactive); in experiment [13], 0.428 µM (active); in experiment [14], 1.17 µM (inactive); in experiment [15], 14.4 µM (inactive); in [16], 1.6 µM (inactive); in experiment [17], > 33.4 µM (inactive). Also, the GI50 in experiment [18] is 2.38 µM (inactive).
